Measurements from paper PMC3627040, “Methadone but not Morphine Inhibits Lubiprostone-Stimulated Cl^− Currents in T84 Intestinal Cells and Recombinant Human ClC-2, but not CFTR Cl^− Currents” (Cell Biochemistry and Biophysics, 2012).

Molecular target: T1, human ClC-2 (hClC-2) Cl^− channel (Homo sapiens, UniProt P51788)
T1 construct: gene CLCN2; recombinant hClC-2 stably expressed in HEK293EBNA cells
T1 sequence (P51788 2-898): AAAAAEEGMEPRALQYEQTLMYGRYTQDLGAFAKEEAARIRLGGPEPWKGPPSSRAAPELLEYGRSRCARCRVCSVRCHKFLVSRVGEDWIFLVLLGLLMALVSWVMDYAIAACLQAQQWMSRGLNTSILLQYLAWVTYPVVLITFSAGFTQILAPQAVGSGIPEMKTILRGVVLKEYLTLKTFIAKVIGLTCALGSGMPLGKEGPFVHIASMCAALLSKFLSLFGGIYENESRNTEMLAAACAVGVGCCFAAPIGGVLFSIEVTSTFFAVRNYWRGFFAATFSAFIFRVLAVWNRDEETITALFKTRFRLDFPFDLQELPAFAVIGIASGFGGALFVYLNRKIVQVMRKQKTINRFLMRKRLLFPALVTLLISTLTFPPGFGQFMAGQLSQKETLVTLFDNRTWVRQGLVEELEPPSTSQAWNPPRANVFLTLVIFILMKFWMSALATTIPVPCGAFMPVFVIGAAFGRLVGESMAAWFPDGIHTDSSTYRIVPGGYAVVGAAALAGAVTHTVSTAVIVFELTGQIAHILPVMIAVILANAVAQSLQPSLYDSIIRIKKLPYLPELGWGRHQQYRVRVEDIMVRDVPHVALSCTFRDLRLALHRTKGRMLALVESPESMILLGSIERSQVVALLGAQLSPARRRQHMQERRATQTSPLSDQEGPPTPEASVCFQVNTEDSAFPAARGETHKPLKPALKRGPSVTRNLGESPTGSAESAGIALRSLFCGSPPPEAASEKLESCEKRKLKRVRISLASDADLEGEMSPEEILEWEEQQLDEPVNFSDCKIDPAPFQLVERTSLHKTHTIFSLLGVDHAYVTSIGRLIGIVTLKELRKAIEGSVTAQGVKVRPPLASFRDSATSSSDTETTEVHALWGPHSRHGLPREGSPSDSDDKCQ
Test: whole cell patch clamp, activation of Cl- currents at -140 mV
Format: cell-based

CCCCC(F)(F)[C@@]1(O)CC[C@H]2[C@@H](CC(=O)[C@@H]2CCCCCCC(=O)O)O1 [Lubiprostone]
EC50: 28.2 nM
